We go through six substances from patent publication US20170184612A1, “USE OF LEUKOCYTES AND NOVEL BIOMARKERS IN THE DIAGNOSIS, CONFIRMATION, AND TREATMENT OF A NEUROLOGICAL DISORDER” (The Trustees of Columbia University in the City of New York, priority 2014, published 2017).

In assay [1] the test system is peripheral blood mononuclear cells (PBMC), T cells. Briefly: ELISpot assay, gamma-interferon release (SFC) after stimulation with a-synuclein epitope pools. In kind it is cell-based, human. As to conditions: for Pool +: IFNg, Pool Stimulated, number of donors with a positive response, Donors tested 1; for IFNg Peptide + (donors positive to the peptide): of donors tested (peptide); for IFNg Peptide +: number of donors positive to the single peptide. In a few lines:
(§1)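 Ficoll-isolated PBMC from PD patients and age-matched controls were stimulated 22 h at 37 °C with pools of candidate α-syn class I/II and phospho-S129 epitopes, then deconvoluted to single epitopes in responders. IFNγ and IL-5 spot-forming cells were counted colorimetrically, with ≥20 SFC per million cells counted as a response.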

Assay [2] shares this test system. Briefly: ELISpot assay, IL-5 release (SFC) after stimulation with a-synuclein epitope pools. Format: cell-based, human. As to conditions: for IL-g Peptide + (donors positive to the peptide): of donors tested (peptide); for IL-g Peptide +: number of donors positive to the single peptide. The essentials:
as §1

Where [3] appears, read: Patients Summary, PD patients, single peptide.
Setting [4] is: second 'Pool Stimulated' section (from r296), 12 donors tested.
[5] abbreviates: peptide + / donors tested (peptide), second 'Pool Stimulated' section (from r296), 12 donors tested.
Where [6] appears, read: single peptide, second 'Pool Stimulated' section (from r296), 12 donors tested.

Consider “3521.0064 (GVVHGVATV; listed as Homo sapiens)”, for which the “Pool +” value in assay [1] amounted to 1. Besides, the “IFNg Peptide + (donors positive to the peptide)” value in assay [1] (Patients Summary, PD patients) was 0. Moreover, the “IFNg Response Frequency” value in assay [1] (setting [3]) and in assay [1] (setting [5]) was 0% in each case. For the same substance, the “IFNg Total SFC” value in assay [1] (setting [3]) and in assay [1] (setting [6]) was 0 SFC each time. For the same substance, the “IFNg Peptide +” value in assay [1] (setting [4]) is listed as 0. Moreover, the “IL-g Peptide + (donors positive to the peptide)” value in assay [2] (Patients Summary, PD patients) is reported as 0. Besides, the figures for the “IL-g Response Frequency” value in assay [2] (setting [3]) and in assay [2] (setting [5]) were 0% and 50%, respectively. Besides, the figures for the “IL-g Total SFC” value in assay [2] (setting [3]) and in assay [2] (setting [6]) were 0 SFC and 75 SFC, respectively. The “IL-g Peptide +” value in assay [2] (setting [4]) was 1. The “IL-g Avg SFC” value in assay [2] (setting [6]) was found to be 75 SFC.

As to “3521.0065 (FVKKDQLGK; listed as Homo sapiens)”, the “Pool +” value in assay [1] worked out at 0. Besides, in assay [1] (Patients Summary, PD patients), the “IFNg Peptide + (donors positive to the peptide)” value turned out to be 0. For the same substance, the “IFNg Response Frequency” value in assay [1] (setting [3]) and in assay [1] (setting [5]) was 0% in each case. Further, the “IFNg Total SFC” value in assay [1] (setting [3]) and in assay [1] (setting [6]) was 0 SFC each time. Besides, in assay [1] (setting [4]), the “IFNg Peptide +” value came out at 0. Moreover, the “IL-g Peptide + (donors positive to the peptide)” value in assay [2] (Patients Summary, PD patients) was determined as 0. The “IL-g Response Frequency” value in assay [2] (setting [3]) and in assay [2] (setting [5]) was 0% each time. The “IL-g Total SFC” value in assay [2] (setting [3]) and in assay [2] (setting [6]) was 0 SFC in each case. In addition, the “IL-g Peptide +” value in assay [2] (setting [4]) came out at 0.

Regarding “3521.0067 (KTKEGVVHG; listed as Homo sapiens)”, in assay [1], the “Pool +” value turned out to be 0. Besides, the “IFNg Peptide + (donors positive to the peptide)” value in assay [1] (Patients Summary, PD patients) is recorded as 0. Further, in assay [1] (setting [3]), the “IFNg Response Frequency” value is reported as 0% and the “IFNg Total SFC” value is reported as 0 SFC. Further, the “IL-g Peptide + (donors positive to the peptide)” value in assay [2] (Patients Summary, PD patients) is reported as 0. In addition, in assay [2] (setting [3]), the “IL-g Response Frequency” value was determined as 0% and the “IL-g Total SFC” value stood at 0 SFC.

Take “3521.0068 (GVAEAPGKTK; listed as Homo sapiens)”: the “Pool +” value in assay [1] is listed as 0. Moreover, the “IFNg Peptide + (donors positive to the peptide)” value in assay [1] (Patients Summary, PD patients) stood at 0. Further, the “IFNg Response Frequency” value in assay [1] (setting [3]) and in assay [1] (setting [5]) was 0% in each case. For the same substance, the “IFNg Total SFC” value in assay [1] (setting [3]) and in assay [1] (setting [6]) was 0 SFC each time. The “IFNg Peptide +” value in assay [1] (setting [4]) is given as 0. Further, the “IL-g Peptide + (donors positive to the peptide)” value in assay [2] (Patients Summary, PD patients) is 0. Besides, the “IL-g Response Frequency” value in assay [2] (setting [3]) and in assay [2] (setting [5]) was 0% each time. Besides, the “IL-g Total SFC” value in assay [2] (setting [3]) and in assay [2] (setting [6]) was 0 SFC throughout. The “IL-g Peptide +” value in assay [2] (setting [4]) stood at 0.

Take “3521.0069 (GVAEAAGKTK; listed as Homo sapiens)”: the “Pool +” value in assay [1] is 0. In addition, in assay [1] (Patients Summary, PD patients), the “IFNg Peptide + (donors positive to the peptide)” value turned out to be 1. Moreover, the “IFNg Avg SFC” value in assay [1] (setting [3]) amounted to 53 SFC. The “IFNg Response Frequency” value is 13% in assay [1] (setting [3]) and 0% in assay [1] (setting [5]). The entries for the “IFNg Total SFC” value in assay [1] (setting [3]) and in assay [1] (setting [6]) were 53 SFC and 0 SFC, respectively. In addition, the “IFNg Peptide +” value in assay [1] (setting [4]) is on record as 0. Besides, the “IL-g Peptide + (donors positive to the peptide)” value in assay [2] (Patients Summary, PD patients) was 0. Besides, the “IL-g Response Frequency” value in assay [2] (setting [3]) and in assay [2] (setting [5]) was 0% throughout. Moreover, the “IL-g Total SFC” value in assay [2] (setting [3]) and in assay [2] (setting [6]) was 0 SFC in each case. Further, the “IL-g Peptide +” value in assay [2] (setting [4]) was 0.

Turning to “3521.0071 (YVGSKTKEGVVHGVT; listed as Homo sapiens)”, the “Pool +” value in assay [1] amounted to 0. Moreover, the “IFNg Peptide + (donors positive to the peptide)” value in assay [1] (Patients Summary, PD patients) was found to be 0. In addition, in assay [1] (setting [3]), the “IFNg Response Frequency” value worked out at 0% and the “IFNg Total SFC” value is recorded as 0 SFC. In addition, the “IL-g Peptide + (donors positive to the peptide)” value in assay [2] (Patients Summary, PD patients) came to 1. For the same substance, in assay [2] (setting [3]), the “IL-g Avg SFC” value came out at 35 SFC, the “IL-g Response Frequency” value was 17% and the “IL-g Total SFC” value was determined as 35 SFC.
